# Results as given in PMC8360061, “Search for the Active Ingredients from a 2‐Aminothiazole DMSO Stock Solution with Antimalarial Activity” (Chemmedchem, 2021).
# Read-outs that look alike come from different tables or passages of the source.
# Legend:
# HepG2 = assay: Cytotoxicity assay HepG2; assay type: cell-based; conditions: Homo sapiens, old sample before becoming aware of the decomposition, read-out: %-inh. HepG2
# Procedure: (§1) Due to the nature of the study, some decomposition samples w ere only tested once and thus, for some formal standard error, […]
# (§2) For the final purified compounds, replicates were measured and standard deviation was calculated at least from two replicates. […]
# (§3) 1.3 General Procedure for Cytotoxicity Assay
# (§4) Cytotoxicity assays based on the human lung adenocarcinoma (A549), human embryonic kidney (Hek293) and human hepatocellular carcinoma (HepG2) cell lines were performed as described previously.[7] […]
# PfIspE = PfIspE (Plasmodium falciparum, UniProt Q8I470); assay: PfIspE enzymatic assay (coupled to PK/LDH, NADH oxidation at 340 nm); assay type: biochemical
# Chain of PfIspE (Q8I470 entry or part of it): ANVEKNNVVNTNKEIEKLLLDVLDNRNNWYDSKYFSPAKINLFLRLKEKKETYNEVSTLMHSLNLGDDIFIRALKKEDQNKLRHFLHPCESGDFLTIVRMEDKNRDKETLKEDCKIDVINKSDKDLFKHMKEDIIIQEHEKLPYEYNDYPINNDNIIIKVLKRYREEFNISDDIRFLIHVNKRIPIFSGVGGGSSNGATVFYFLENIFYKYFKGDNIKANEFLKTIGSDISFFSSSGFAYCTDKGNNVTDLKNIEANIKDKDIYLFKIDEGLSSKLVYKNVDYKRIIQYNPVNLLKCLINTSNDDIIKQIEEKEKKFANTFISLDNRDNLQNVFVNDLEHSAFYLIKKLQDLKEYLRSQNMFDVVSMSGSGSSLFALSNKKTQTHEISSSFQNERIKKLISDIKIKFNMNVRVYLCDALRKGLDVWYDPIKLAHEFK
# Procedure: Firstly, we performed a temperature‐dependent decomposition study of compound 1 at 10 mM concentration in DMSO at room temperature (RT), +4 °C and −20 °C (SI, Section 2.3). […] Besides visual inspection of the colour changes of the test sample (see Table 2), the decomposition was monitored by HRMS and NMR spectroscopy. […] Furthermore, all three samples were tested for their inhibitory activity against PfIspE after the incubation period. […] In the IspE assay, the activity of the target enzyme is coupled to the oxidation of NADH (which can be followed spectrophotometrically at 340 nm) via a cascade of the auxiliary enzymes pyruvate kinase and lactate dehydrogenase (PK/LDH).[10] […] Three samples of compound 1 were tested in PK/LDH assay (Table 2).
# (§5) Another approach to address this issue is to perform the IspE assay with one or several orthologues of PfIspE. […] The IspE assay setup was identical for both Pf and EcIspE orthologs except for the target enzyme used. One of the setup requirements was that the enzymatic activity of the auxiliary enzymes PK/LDH exceeded the activity of the target enzyme IspE not less than a factor of ten.[10] We investigated, if the inhibition of the auxiliary enzymes may substantially influence the IC50 values obtained from the coupled IspE assay.
# (§6) 1.1 General Procedure for Enzymatic Assay
# (§7) The cloning, expression and purification of Plasmodium falciparum[1] and Escherichia coli[2,3] and their subsequent assays followed the previously reported procedures .[1] In some specified cases, the tested compound was dissolved in methanol or acetonitrile for the assay .
# as §1, §2
# (§8) 2.) Decomposition Study Procedure
# (§9) All reagents and solvents were of commercial quality and used without further purification.
# EcIspE = target: T1, EcIspE (Escherichia coli, UniProt P62615); assay: EcIspE enzymatic assay (coupled to PK/LDH); assay type: biochemical
# T1 construct: made in house
# T1 sequence (P62615 whole entry): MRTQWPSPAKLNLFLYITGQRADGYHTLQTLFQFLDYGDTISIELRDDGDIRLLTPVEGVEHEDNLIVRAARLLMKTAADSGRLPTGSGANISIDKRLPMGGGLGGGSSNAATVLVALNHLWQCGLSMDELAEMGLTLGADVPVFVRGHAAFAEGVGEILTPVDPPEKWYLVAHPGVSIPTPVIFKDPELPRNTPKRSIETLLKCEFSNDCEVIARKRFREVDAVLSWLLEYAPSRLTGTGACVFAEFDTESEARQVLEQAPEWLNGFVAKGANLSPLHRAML
# Excerpt: as §5, §6, §7, §1, §2, §8, §9
# Low resolution mass analytics and purity controls were carried out using an Ultimate 3000-ISQ liquid-chromatography mass spectrometry (LCMS) system (Thermo Fisher […]
# [1] = test system: Plasmodium falciparum drug-sensitive NF54; assay: Antimalarial assay, [3H]hypoxanthine incorporation; assay type: cell-based; conditions: for IC50: Plasmodium falciparum, read-out: PfNF54 IC50
# Procedure: as §1
# For the final purified compounds, replicates were measured and standard deviation was calculated at least from two replicates.
# 1.2 General Procedure for Antimalarial Assay
# Plasmodium falciparum drug-sensitive NF54 (airport strain from The Netherlands, provided by F. Hoffmann-La Roche Ltd) was cultivated in a variation of the medium consisting of RPMI 1640 supplemented with 0.5% ALBUMAX® II, 25 mM Hepes, 25 mM NaHCO3 (pH 7.3), 0.36 mM hypoxanthine, and 100 μg/mL neomycin, as previously described.[4,5] Human erythrocytes served as host cells.
# Cultures were maintained in an atmosphere of 3% O2, 4% CO2, and 93% N2 in humidified modular chambers at 37 °C. Compounds were dissolved in MeOH (10 mM), diluted in hypoxanthine-free culture medium and titrated in duplicates over a 64-fold range in 96 well plates. Infected erythrocytes (1.25% final hematocrit and 0.3% final parasitemia) were added into the wells. After 48 h incubation, 0.25 μCi of [3H]hypoxanthine was added per well and plates were incubated for an additional 24 h. Parasites were harvested onto glass-fiber filters and radioactivity was counted using a Betaplate liquid scintillation counter (Wallac, Zurich). Chloroquine […]
# The results were recorded and expressed as a percentage of the untreated controls. Fifty percent inhibitory concentrations (IC50) were estimated by linear interpolation.[6] […]
# A549 = assay: Cytotoxicity assay A549; assay type: cell-based; conditions: Homo sapiens, old sample before becoming aware of the decomposition, read-out: %-inh. A549
# Procedure: as §1, §2, §3, §4
# [2] = 10 mM DMSO stock stored at +4 °C, measured after 3 months
# [3] = 10 mM DMSO stock stored at RT, measured after 3 months
# [4] = 10 mM DMSO stock stored at −20 °C, measured after 3 months
# [5] = analytical sample, DMSO at RT, 0 days of incubation, dissolved in methanol shortly before the assay
# [6] = analytical sample, DMSO at RT, 1 day of incubation, dissolved in methanol shortly before the assay
# [7] = analytical sample, DMSO at RT, 2 days of incubation, dissolved in methanol shortly before the assay
# [8] = analytical sample, DMSO at RT, 3 days of incubation, dissolved in methanol shortly before the assay
# [9] = analytical sample, DMSO at RT, 4 days of incubation, dissolved in methanol shortly before the assay
# [10] = fresh batch, freshly prepared stock solution
# [11] = old decomposed sample, control run at the same time as the temperature study
compound,measurement,setting,value
CCn1c(C)cc(-c2csc(Nc3ccccc3C(F)(F)F)n2)c1C [Compound 1],inhibition at 100 µM,HepG2,44%
same,IC50,PfIspE; [2],16 ± 7 µM
same,IC50,PfIspE; [3],12 ± 4 µM
same,IC50,PfIspE; [4],> 500 µM
same,IC50,"PfIspE; 10 mM stock in ACN at RT, 0 days of incubation",> 500 µM
same,IC50,"PfIspE; 10 mM stock in ACN at RT, 5 days of incubation",> 500 µM
same,IC50,"PfIspE; 10 mM stock in ACN at RT, 7 days of incubation",> 500 µM
same,IC50,"PfIspE; 10 mM stock in ACN at RT, 9 days of incubation",> 500 µM
same,IC50,"PfIspE; 10 mM stock in ACN at RT, 12 days of incubation",> 500 µM
same,IC50,"PfIspE; 10 mM stock in ACN at RT, 14 days of incubation",> 500 µM
same,IC50,"PfIspE; 10 mM stock in ACN at RT, 16 days of incubation",> 500 µM
same,IC50,"PfIspE; 10 mM stock in DMSO at RT, 0 days of incubation",> 500 µM
same,IC50,"PfIspE; 10 mM stock in DMSO at RT, 5 days of incubation",19 ± 7 µM
same,IC50,"PfIspE; 10 mM stock in DMSO at RT, 7 days of incubation",24 ± 9 µM
same,IC50,"PfIspE; 10 mM stock in DMSO at RT, 9 days of incubation",10 ± 4 µM
same,IC50,"PfIspE; 10 mM stock in DMSO at RT, 12 days of incubation",1 ± 1 µM
same,IC50,"PfIspE; 10 mM stock in DMSO at RT, 14 days of incubation",10 ± 4 µM
same,IC50,"PfIspE; 10 mM stock in DMSO at RT, 16 days of incubation",11 ± 4 µM
same,IC50,"PfIspE; 10 mM stock in MeOH at RT, 0 days of incubation",> 500 µM
same,IC50,"PfIspE; 10 mM stock in MeOH at RT, 5 days of incubation",> 500 µM
same,IC50,"PfIspE; 10 mM stock in MeOH at RT, 7 days of incubation",> 500 µM
same,IC50,"PfIspE; 10 mM stock in MeOH at RT, 9 days of incubation",> 500 µM
same,IC50,"PfIspE; 10 mM stock in MeOH at RT, 12 days of incubation",> 500 µM
same,IC50,"PfIspE; 10 mM stock in MeOH at RT, 14 days of incubation",> 500 µM
same,IC50,"PfIspE; 10 mM stock in MeOH at RT, 16 days of incubation",> 500 µM
same,IC50,PfIspE; [5],> 500 µM
same,IC50,PfIspE; [6],> 500 µM
same,IC50,PfIspE; [7],> 500 µM
same,IC50,PfIspE; [8],486 ± 20 µM
same,IC50,PfIspE; [9],99 ± 23 µM
same,IC50,"PfIspE; fractions of second purification (DMSO, RT, five days), dissolved in ACN",> 1370 µM
same,IC50,"PfIspE; fractions of second purification (DMSO, RT, five days), dissolved in MeOH",> 1370 µM
same,IC50,PfIspE; [10],> 500 µM
same,PfIspE IC50,PfIspE; [10],no activity
same,IC50,"PfIspE; freshly dissolved compound, in methanol shortly before the assay (Table 4 footnote b)",> 500 µM
same,IC50,PfIspE; old batch (decomposed DMSO stock),8 ± 2.8 µM
same,IC50,PfIspE; [11],10 ± 3 µM
same,IC50,EcIspE; [2],71 ± 10 µM
same,IC50,EcIspE; [3],101 ± 14 µM
same,IC50,EcIspE; [4],> 500 µM
same,IC50,EcIspE; [5],> 500 µM
same,IC50,EcIspE; [6],> 500 µM
same,IC50,EcIspE; [7],> 500 µM
same,IC50,EcIspE; [8],397 µM
same,IC50,EcIspE; [9],75 ± 16 µM
same,IC50,"EcIspE; fractions of second purification, dissolved in ACN",> 1370 µM
same,IC50,"EcIspE; fractions of second purification, dissolved in MeOH",> 1370 µM
same,IC50,EcIspE; [11],32 ± 6 µM
same,IC50,"[1]; NF54, 48 h, analytical sample, DMSO at RT, 2 days of incubation, dissolved in methanol shortly before the assay",3.5 ± 0.3 µM
same,IC50,"[1]; NF54, 96 h, analytical sample, DMSO at RT, 4 days of incubation, dissolved in methanol shortly before the assay",2.7 ± 0.3 µM
same,IC50,"[1]; NF54, fresh batch",7.3 ± 0.8 µM
same,IC50,"[1]; NF54, old batch (decomposed DMSO stock)",0.43 ± 0.01 µM
same,"reduction in activity against PfNF54, fresh batch vs old batch",[1]; fresh batch compared with old decomposed batch,17 fold
same,inhibition at 100 µM,A549,-0.3%
